Assay results: publication PMC5218480 (PLoS ONE, 2017)

Test system: MV-4-11 cells
Assay: Gene expression microarray analysis (Affymetrix PrimeView) and GSEA
Assay type: cell-based, human
Parameters: RFU PODN (11730768_x_at) / Fold change /veh PODN (11730768_x_at) / RFU LINC00158 (11744669_a_at) / Fold change /veh LINC00158 (11744669_a_at) / RFU DUSP10 (11751237_a_at) / Fold change /veh DUSP10 (11751237_a_at) / RFU ID3 (11757404_x_at) / Fold change /veh ID3 (11757404_x_at) / RFU PLEKHG5 (11737974_s_at) / Fold change /veh PLEKHG5 (11737974_s_at) / RFU LRRC4B (11730491_at) / Fold change /veh LRRC4B (11730491_at) / RFU GIMAP4 (11747438_a_at) / Fold change /veh GIMAP4 (11747438_a_at) / RFU KRT8 (11758183_x_at) / Fold change /veh KRT8 (11758183_x_at) / RFU CNN1 (11734310_a_at) / Fold change /veh CNN1 (11734310_a_at) / RFU VPS37D (11726825_at) / Fold change /veh VPS37D (11726825_at) / RFU C10orf10 (11716522_x_at) / Fold change /veh C10orf10 (11716522_x_at) / RFU KIR2DL2 /// KIR2DL4 /// KIR2DL5A /// KIR2DL5B /// KIR2DS1 /// KIR2DS2 /// KIR2DS3 /// KIR2DS4 /// KIR3DL3 /// KIR3DL3 /// KIR3DS1 (11738374_at) / Fold change /veh KIR2DL2 /// KIR2DL4 /// KIR2DL5A /// KIR2DL5B /// KIR2DS1 /// KIR2DS2 /// KIR2DS3 /// KIR2DS4 /// KIR3DL3 /// KIR3DL3 /// KIR3DS1 (11738374_at) / RFU C1QL1 (11718748_at) / Fold change /veh C1QL1 (11718748_at) / RFU TMPRSS4 (11747572_a_at) / Fold change /veh TMPRSS4 (11747572_a_at) / RFU HAMP (11756126_x_at) / Fold change /veh HAMP (11756126_x_at) / RFU RNFT2 (11725882_a_at) / Fold change /veh RNFT2 (11725882_a_at) / RFU NR4A2 (11747474_a_at) / Fold change /veh NR4A2 (11747474_a_at) / RFU ABCC12 (11746883_a_at) / Fold change /veh ABCC12 (11746883_a_at) / RFU TMEM136 (11760407_x_at) / Fold change /veh TMEM136 (11760407_x_at) / RFU CLDN22 /// WWC2 (11732394_at) / Fold change /veh CLDN22 /// WWC2 (11732394_at) / RFU HLA-DPB1 (11760878_x_at) / Fold change /veh HLA-DPB1 (11760878_x_at) / RFU SPINT1 (11716480_a_at) / Fold change /veh SPINT1 (11716480_a_at) / RFU GAP43 (11754022_s_at) / Fold change /veh GAP43 (11754022_s_at) / RFU A4GNT (11735810_at) / Fold change /veh A4GNT (11735810_at) / RFU PRB3 (11715151_x_at) / Fold change /veh PRB3 (11715151_x_at) / RFU TUBB4B (11761932_at) / Fold change /veh TUBB4B (11761932_at) / RFU CAPN14 (11732068_a_at) / Fold change /veh CAPN14 (11732068_a_at) / RFU TMCC2 (11721928_a_at) / Fold change /veh TMCC2 (11721928_a_at) / RFU IRGQ (11745062_a_at) / Fold change /veh IRGQ (11745062_a_at) / RFU FAM174B (11720279_a_at) / Fold change /veh FAM174B (11720279_a_at) / RFU TMPRSS4 (11748680_a_at) / Fold change /veh TMPRSS4 (11748680_a_at) / RFU FAM212B (11763350_a_at) / Fold change /veh FAM212B (11763350_a_at) / RFU PLEKHG5 (11743358_a_at) / Fold change /veh PLEKHG5 (11743358_a_at) / RFU ZSCAN30 (11745921_a_at) / Fold change /veh ZSCAN30 (11745921_a_at) / RFU CMKLR1 (11741424_a_at) / Fold change /veh CMKLR1 (11741424_a_at) / RFU LOC101060620 /// MAPK8IP1 (11723275_at) / Fold change /veh LOC101060620 /// MAPK8IP1 (11723275_at) / RFU SPTSSB (11747773_x_at) / Fold change /veh SPTSSB (11747773_x_at) / RFU PRSS12 (11739890_at) / Fold change /veh PRSS12 (11739890_at) / RFU BIN1 (11741810_x_at) / Fold change /veh BIN1 (11741810_x_at) / RFU WNT11 (11732464_a_at) / Fold change /veh WNT11 (11732464_a_at) / RFU C10orf10 (11716521_a_at) / Fold change /veh C10orf10 (11716521_a_at) / RFU C5orf56 (11738089_at) / Fold change /veh C5orf56 (11738089_at) / RFU CYB561 (11721691_x_at) / Fold change /veh CYB561 (11721691_x_at) / RFU ANKRD19P (11752326_a_at) / Fold change /veh ANKRD19P (11752326_a_at) / RFU OR2T12 /// OR2T33 /// OR2T8 (11738714_s_at) / Fold change /veh OR2T12 /// OR2T33 /// OR2T8 (11738714_s_at) / RFU VCAN (11748164_a_at) / Fold change /veh VCAN (11748164_a_at) / RFU JSRP1 (11732532_at) / Fold change /veh JSRP1 (11732532_at) / RFU KRTAP10-11 (11738290_x_at) / Fold change /veh KRTAP10-11 (11738290_x_at) / RFU MYO3A (11730013_a_at) / Fold change /veh MYO3A (11730013_a_at) / RFU EBF3 (11725865_a_at) / Fold change /veh EBF3 (11725865_a_at) / RFU CAMK2N1 (11719241_x_at) / Fold change /veh CAMK2N1 (11719241_x_at) / RFU C5orf56 (11738088_a_at) / Fold change /veh C5orf56 (11738088_a_at) / RFU OLFML3 (11715873_a_at) / Fold change /veh OLFML3 (11715873_a_at) / RFU LOC100653217 /// NTM (11731650_a_at) / Fold change /veh LOC100653217 /// NTM (11731650_a_at) / RFU MAPK11 (11762145_a_at) / Fold change /veh MAPK11 (11762145_a_at) / RFU FIZ1 (11724087_x_at) / Fold change /veh FIZ1 (11724087_x_at) / RFU OASL (11726364_x_at) / Fold change /veh OASL (11726364_x_at) / RFU SOX15 (11748057_x_at) / Fold change /veh SOX15 (11748057_x_at) / RFU CD79A (11719716_a_at) / Fold change /veh CD79A (11719716_a_at) / RFU HIST1H1D (11736915_at) / Fold change /veh HIST1H1D (11736915_at) / RFU CASKIN2 (11723855_a_at) / Fold change /veh CASKIN2 (11723855_a_at) / RFU LOC730098 (11760151_x_at) / Fold change /veh LOC730098 (11760151_x_at) / RFU OR4N2 (11742367_at) / Fold change /veh OR4N2 (11742367_at) / RFU PRRT2 (11749266_a_at) / Fold change /veh PRRT2 (11749266_a_at) / RFU SNX32 (11753110_a_at) / Fold change /veh SNX32 (11753110_a_at) / RFU CDHR5 (11726645_a_at) / Fold change /veh CDHR5 (11726645_a_at) / RFU RCAN1 (11760418_a_at) / Fold change /veh RCAN1 (11760418_a_at) / RFU FAM167A (11723789_a_at) / Fold change /veh FAM167A (11723789_a_at) / RFU FAM26E (11764081_at) / Fold change /veh FAM26E (11764081_at) / RFU ISYNA1 (11749810_s_at) / Fold change /veh ISYNA1 (11749810_s_at) / RFU ACY1 (11761880_at) / Fold change /veh ACY1 (11761880_at) / RFU 11764098_at / Fold change /veh 11764098_at / RFU SAMD14 (11745864_x_at) / Fold change /veh SAMD14 (11745864_x_at) / RFU NPB (11741838_a_at) / Fold change /veh NPB (11741838_a_at) / RFU TMPRSS6 (11731388_a_at) / Fold change /veh TMPRSS6 (11731388_a_at) / RFU KRTAP10-2 (11738614_at) / Fold change /veh KRTAP10-2 (11738614_at) / RFU ARHGAP8 /// PRR5-ARHGAP8 (11727945_x_at) / Fold change /veh ARHGAP8 /// PRR5-ARHGAP8 (11727945_x_at) / RFU KRTAP5-7 /// NADSYN1 (11734609_at) / Fold change /veh KRTAP5-7 /// NADSYN1 (11734609_at) / RFU RASL12 (11751679_a_at) / Fold change /veh RASL12 (11751679_a_at) / RFU CDKN2B (11736163_a_at) / Fold change /veh CDKN2B (11736163_a_at) / RFU PRF1 (11729649_at) / Fold change /veh PRF1 (11729649_at) / RFU, ZNF638 /// ZNF638-IT1 / Fold change vs veh, ZNF638 /// ZNF638-IT1 / RFU, PANK3 / Fold change vs veh, PANK3 / RFU, SH3YL1 / Fold change vs veh, SH3YL1 / RFU, ZEB2 / Fold change vs veh, ZEB2 / RFU, NRIP1 / Fold change vs veh, NRIP1 / RFU, PTTG1IP / Fold change vs veh, PTTG1IP / RFU, CAPN2 / Fold change vs veh, CAPN2 / RFU, MED14 / Fold change vs veh, MED14 / RFU, SNORA58 / Fold change vs veh, SNORA58 / RFU, C1orf63 / Fold change vs veh, C1orf63 / RFU, LRRFIP1 / Fold change vs veh, LRRFIP1 / RFU, NDUFAF7 / Fold change vs veh, NDUFAF7 / RFU, SLC12A2 / Fold change vs veh, SLC12A2 / RFU, IBTK / Fold change vs veh, IBTK / RFU, ESF1 / Fold change vs veh, ESF1 / Fold change vs veh, TMEM50B / RFU, TAOK1 / Fold change vs veh, TAOK1 / RFU, ACBD3 / Fold change vs veh, ACBD3 / RFU, TMA16 / Fold change vs veh, TMA16 / RFU, RWDD3 / Fold change vs veh, RWDD3 / RFU, BCAT1 / Fold change vs veh, BCAT1 / RFU, EDEM3 / Fold change vs veh, EDEM3 / RFU, TMEM33 / Fold change vs veh, TMEM33 / RFU, WDR75 / Fold change vs veh, WDR75 / RFU, AHCTF1 / Fold change vs veh, AHCTF1 / RFU, TFRC / Fold change vs veh, TFRC / RFU, ZDHHC17 / Fold change vs veh, ZDHHC17 / RFU, NOM1 / Fold change vs veh, NOM1 / RFU, ARL8B / Fold change vs veh, ARL8B / RFU, ZBTB11 / Fold change vs veh, ZBTB11 / RFU, TAMM41 / Fold change vs veh, TAMM41 / RFU, KIAA1704 /// LOC100996395 / Fold change vs veh, KIAA1704 /// LOC100996395 / RFU, ING1 / Fold change vs veh, ING1 / RFU, TRMT61B / Fold change vs veh, TRMT61B / RFU, FUBP3 / Fold change vs veh, FUBP3 / RFU, TP53 / Fold change vs veh, TP53 / RFU, TNKS2 / Fold change vs veh, TNKS2 / RFU, ZFP14 / Fold change vs veh, ZFP14 / RFU, ACTR2 / Fold change vs veh, ACTR2 / RFU, PPP3R1 / Fold change vs veh, PPP3R1 / RFU, PIK3R1 / Fold change vs veh, PIK3R1 / RFU, HNRNPA1 / Fold change vs veh, HNRNPA1 / RFU, RNF170 / Fold change vs veh, RNF170 / RFU, ZNF28 / Fold change vs veh, ZNF28 / RFU, RNGTT / Fold change vs veh, RNGTT / RFU, OGT / Fold change vs veh, OGT / RFU, BRD1 / Fold change vs veh, BRD1 / RFU, MARS / Fold change vs veh, MARS / RFU, ZNF655 / Fold change vs veh, ZNF655 / RFU, FAHD1 / Fold change vs veh, FAHD1 / RFU, BDP1 / Fold change vs veh, BDP1 / RFU, LRRCC1 / Fold change vs veh, LRRCC1 / RFU, ARID1A / Fold change vs veh, ARID1A / RFU, ZNF146 / Fold change vs veh, ZNF146 / RFU, ZNF330 / Fold change vs veh, ZNF330 / RFU, GPN3 / Fold change vs veh, GPN3 / RFU, C9orf123 / Fold change vs veh, C9orf123 / RFU, N4BP2L2 / Fold change vs veh, N4BP2L2 / RFU, ARFIP1 / Fold change vs veh, ARFIP1 / RFU, FAM179B / Fold change vs veh, FAM179B / RFU, BCL10 / Fold change vs veh, BCL10 / RFU, UHRF1BP1L / Fold change vs veh, UHRF1BP1L / RFU, BET1 / Fold change vs veh, BET1 / RFU, CNOT2 / Fold change vs veh, CNOT2 / RFU, ZNF268 / Fold change vs veh, ZNF268 / Fold change vs veh, ZNF507 / RFU, DGCR2 / Fold change vs veh, DGCR2 / RFU, WDSUB1 / Fold change vs veh, WDSUB1 / Fold change vs veh, HSP90B1 /// MIR3652 / RFU, ADSS / Fold change vs veh, ADSS / RFU, GK / Fold change vs veh, GK / RFU, ZNF148 / Fold change vs veh, ZNF148 / RFU, TAF9 / Fold change vs veh, TAF9 / RFU, SLC1A5 / Fold change vs veh, SLC1A5 / RFU, SLMO2 / Fold change vs veh, SLMO2 / RFU, ABCC4 / Fold change vs veh, ABCC4 / RFU, LOC101060439 /// RAP1B / Fold change vs veh, LOC101060439 /// RAP1B / RFU, RFX7 / Fold change vs veh, RFX7 / RFU, GTPBP10 / Fold change vs veh, GTPBP10 / RFU, CNEP1R1 / Fold change vs veh, CNEP1R1 / RFU, BIVM-ERCC5 /// ERCC5 / Fold change vs veh, BIVM-ERCC5 /// ERCC5 / RFU, ILF3 / Fold change vs veh, ILF3 / RFU 11762660_at / Fold change /veh 11762660_at / RFU VCAN (11757783_s_at) / Fold change /veh VCAN (11757783_s_at) / RFU DDX43 (11728927_at) / Fold change /veh DDX43 (11728927_at) / RFU KRT8 (11758188_x_at) / Fold change /veh KRT8 (11758188_x_at) / RFU NKD1 (11759106_at) / Fold change /veh NKD1 (11759106_at) / RFU SRD5A1 (11742802_a_at) / Fold change /veh SRD5A1 (11742802_a_at) / RFU TPSAB1 /// TPSB2 (11721975_s_at) / Fold change /veh TPSAB1 /// TPSB2 (11721975_s_at) / RFU GSTM3 (11746129_a_at) / Fold change /veh GSTM3 (11746129_a_at) / RFU IL23R (11737362_x_at) / Fold change /veh IL23R (11737362_x_at) / RFU TMEM51 (11727254_a_at) / Fold change /veh TMEM51 (11727254_a_at) / RFU PIWIL2 (11732686_x_at) / Fold change /veh PIWIL2 (11732686_x_at) / RFU ORM1 (11744905_x_at) / Fold change /veh ORM1 (11744905_x_at) / RFU CCDC152 (11743942_at) / Fold change /veh CCDC152 (11743942_at) / RFU ECM1 (11717891_a_at) / Fold change /veh ECM1 (11717891_a_at) / RFU IL23R (11748794_a_at) / Fold change /veh IL23R (11748794_a_at) / RFU TNFAIP8L3 (11732012_x_at) / Fold change /veh TNFAIP8L3 (11732012_x_at) / RFU MBOAT4 (11741988_at) / Fold change /veh MBOAT4 (11741988_at) / RFU 11764193_at / Fold change /veh 11764193_at / RFU TMEM53 (11763286_at) / Fold change /veh TMEM53 (11763286_at) / RFU MAGEB2 (11727129_at) / Fold change /veh MAGEB2 (11727129_at) / RFU TMEM200A (11744735_a_at) / Fold change /veh TMEM200A (11744735_a_at) / RFU CCDC152 (11751479_a_at) / Fold change /veh CCDC152 (11751479_a_at) / RFU FAM211A (11726209_a_at) / Fold change /veh FAM211A (11726209_a_at) / RFU RGS16 (11746705_a_at) / Fold change /veh RGS16 (11746705_a_at) / RFU VCAN (11755009_s_at) / Fold change /veh VCAN (11755009_s_at) / RFU RHOB (11743442_s_at) / Fold change /veh RHOB (11743442_s_at) / RFU RGS16 (11720943_a_at) / Fold change /veh RGS16 (11720943_a_at) / RFU RGS16 (11720944_at) / Fold change /veh RGS16 (11720944_at) / RFU, VPS4B / Fold change vs veh, VPS4B / RFU, CREB1 / Fold change vs veh, CREB1 / RFU, DNAJC13 / Fold change vs veh, DNAJC13 / RFU, GNAQ / Fold change vs veh, GNAQ / RFU, CDK5R1 / Fold change vs veh, CDK5R1 / RFU, ZRANB3 / Fold change vs veh, ZRANB3 / RFU, CUL4A / Fold change vs veh, CUL4A / RFU, CCNY / Fold change vs veh, CCNY / RFU, UFL1 / Fold change vs veh, UFL1 / RFU, COG3 / Fold change vs veh, COG3 / RFU, DIAPH2 / Fold change vs veh, DIAPH2 / RFU, SKA2 / Fold change vs veh, SKA2 / RFU, AFF3 / Fold change vs veh, AFF3 / RFU, LMF1 / Fold change vs veh, LMF1 / RFU, IPO11 / Fold change vs veh, IPO11 / RFU, DFFB / Fold change vs veh, DFFB / RFU, FOXP1 / Fold change vs veh, FOXP1 / RFU, CARD8 / Fold change vs veh, CARD8 / RFU, STRN3 / Fold change vs veh, STRN3 / RFU, ADK / Fold change vs veh, ADK / RFU, RASSF2 / Fold change vs veh, RASSF2 / RFU, WIPF1 / Fold change vs veh, WIPF1 / RFU, LARP1B / Fold change vs veh, LARP1B / RFU, RASA1 / Fold change vs veh, RASA1 / RFU, RB1 / Fold change vs veh, RB1 / RFU, PPFIA1 / Fold change vs veh, PPFIA1 / RFU, MAT2A / Fold change vs veh, MAT2A / RFU, CCT5 / Fold change vs veh, CCT5 / RFU, WDR92 / Fold change vs veh, WDR92 / RFU, CUX1 / Fold change vs veh, CUX1 / RFU, TTC7A / Fold change vs veh, TTC7A / RFU, TMEM135 / Fold change vs veh, TMEM135 / RFU, DEPTOR / Fold change vs veh, DEPTOR / RFU, CPM / Fold change vs veh, CPM / RFU, DNAJB6 / Fold change vs veh, DNAJB6 / RFU, CACNA2D3 / Fold change vs veh, CACNA2D3 / RFU, DTX4 / Fold change vs veh, DTX4 / RFU, TFCP2 / Fold change vs veh, TFCP2 / RFU, GMCL1 /// GMCL1P1 / Fold change vs veh, GMCL1 /// GMCL1P1 / RFU, AEBP2 / Fold change vs veh, AEBP2 / RFU, SNHG1 /// SNORD22 /// SNORD25 /// SNORD26 /// SNORD27 /// SNORD28 /// SNORD29 /// SNORD31 / Fold change vs veh, SNHG1 /// SNORD22 /// SNORD25 /// SNORD26 /// SNORD27 /// SNORD28 /// SNORD29 /// SNORD31 / Fold change (Aza/veh), C12orf56 (ProbeSet 11735607_a_at) / Fold change (ACY-1035/veh), C12orf56 (ProbeSet 11735607_a_at) / Fold change (Aza/veh), FGFR1OP (ProbeSet 11751329_s_at) / Fold change (ACY-1035/veh), FGFR1OP (ProbeSet 11751329_s_at) / Fold change (Aza/veh), VPS36 (ProbeSet 11739960_a_at) / Fold change (ACY-1035/veh), VPS36 (ProbeSet 11739960_a_at) / RFU SYPL1 (11715823_x_at) / Fold change /veh SYPL1 (11715823_x_at) / RFU IGFBP7 (11715501_s_at) / Fold change /veh IGFBP7 (11715501_s_at) / RFU REEP3 (11722064_at) / Fold change /veh REEP3 (11722064_at) / RFU IGLL1 (11728026_x_at) / Fold change /veh IGLL1 (11728026_x_at): dose or concentration left out as unconfirmed
Settings: ProbeSet 11719817_x_at; LIST B

In the case of `Nc1ccc(-c2cccs2)cc1NC(=O)c1ccc2c(c1)cc(C1CC1)n2CCN1CCOCC1` [ACY-1035], the “Fold change vs veh, BET1” value was 0.95.
